This assay concerns the target T1, human NK3 (Homo sapiens, UniProt P29371).
T1 sequence (P29371 1-465): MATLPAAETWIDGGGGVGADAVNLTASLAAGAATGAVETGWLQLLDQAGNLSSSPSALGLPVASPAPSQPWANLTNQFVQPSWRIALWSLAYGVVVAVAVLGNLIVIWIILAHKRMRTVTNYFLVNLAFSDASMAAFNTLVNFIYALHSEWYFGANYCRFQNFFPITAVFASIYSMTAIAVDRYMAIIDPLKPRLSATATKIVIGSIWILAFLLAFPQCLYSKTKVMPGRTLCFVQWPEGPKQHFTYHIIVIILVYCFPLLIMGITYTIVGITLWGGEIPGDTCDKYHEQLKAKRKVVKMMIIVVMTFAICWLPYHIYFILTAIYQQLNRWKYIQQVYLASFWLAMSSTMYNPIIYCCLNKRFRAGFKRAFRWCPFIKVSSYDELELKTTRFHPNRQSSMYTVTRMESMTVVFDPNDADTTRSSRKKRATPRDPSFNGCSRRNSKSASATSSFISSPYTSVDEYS
Nature of the assay: FLIPR calcium assay in antagonist mode (NKB EC70 challenge). As to conditions: stable cell line expressing human recombinant NK3; antagonist mode vs EC70 of NKB agonist. The assay is classed as cell-based. The protocol: Stable Cell Lines: A human recombinant NK3 Tachykinin Receptor stable cell line was purchased from GenScript (Genscript, Cat. #M00201; GenBank Accession Number NM 001059). The cell line was cultured according to manufacturer instructions, using 100 μg/mL Hygromycin B (Invitrogen, Cat. #D2650) for selective pressure. Cells were then collected using 0.05% Trypsin-EDTA (GIBCO, Cat. #25300) and frozen in a freezing media containing 90% FBS (Gibco, Cat. #10099-141) and 10% DMSO (Sigma, Cat. #D2650) at a density of 30×10^6 cells/mL. This bank of assay-ready frozen cells was later used in FLIPR assays to evaluate the potency and efficacy of NK3 antagonist test compounds.
FLIPR Calcium Assay: The FLIPR assay, used to measure changes in intracellular calcium levels, was performed in a 384-well plate format using the FLIPR Calcium 6 assay kit (Molecular Devices, Cat. #R8190). Assay-ready frozen cells expressing human NK3 (Genscript, Cat. #M00201) were thawed, washed, trypsinized, counted using a ViCell, and plated in cell growth media without Hygromycin at a density of […] (40 μL/well).
Calculation of NKB EC70: An EC70 concentration of NKB needed to be determined for competition against test antagonists prior to the compound screen. NKB agonist (Phoenix Pharmaceuticals, Cat. #046-26) was diluted in DMSO at 1800 nM (6-fold the final concentration) and serially diluted to generate a 13-point dose response curve (3-fold serial dilution) using an ECHO. 20 μL of 1× stimulation buffer was added using the BRAVO. 10 μL of DMSO was added while on the FLIPR (described as the first addition), then the RFU signal was measured for 10 minutes. The NKB titration was added to the plate, then the RFU signal was measured for 10 minutes (described as the second addition) on the FLIPR. The EC70 concentration was determined by using a four-parameter fit on GraphPad Prism prior to performing the compound screen.
FLIPR Screen in Antagonist Mode: Test compounds were prepared at 60 μM (6-fold the final concentration) and spotted in 370 nL using the Janus and ECHO. 20 μL of assay buffer was added using the BRAVO. Calcium-sensitive dye was reconstituted in loading buffer (Molecular Devices, Cat. #R8190). Media was removed from the cell plate using a Bluecat Cell Washer, and 40 μL of dye was added to the cell plate using the Apricot. The plate was incubated for 2 hours at 37° C., 5% CO2, then transferred to the FLIPR instrument. 10 μL of compound was added on the FLIPR (described as the first addition), then the RFU signal was measured for 10 minutes. EC70 of NKB agonist was added to the entire plate (described as the second addition), and the RFU signal was measured for 10 minutes on the FLIPR. RFU (relative fluorescence units) signals for first baseline, first peak, second baseline, and second peak were measured using the FLIPR. RFU signal (second peak minus second baseline) for positive (Max, at 10 μM antagonist) and negative (Min, at 0 μM antagonist) controls were used to normalize data and generate values for % Activity. IC50 and efficacy values were determined using a standard curve fitting equation on Dotmatics.

The text below walks through data of patent US12281114B2, “NK3 modulators and uses thereof” (Kallyope, Inc., priority 2023, dated 2025).

By pIC50 is commonly meant the IC50 on a negative log10 scale, so that one unit is a factor of ten.

pIC50: −log10 of the molar value.

For `Cn1cc(-c2ccc(F)c(F)c2-c2nc3cc(C(=O)N4CCOCC4)ccn3c2Cl)c(F)n1` [Compound 933, (3-chloro-2-(2,3-difluoro-6-(3-fluoro-1-methyl-1H-pyrazol-4-yl)phenyl)imidazo[1,2-a]pyridin-7-yl)(morpholino)methanone], the pIC50 was 8.25.

`C[C@H]1C[C@H](NC(=O)c2ccn3c(Cl)c(-c4c(F)cc(F)cc4-c4c[nH]nc4F)nc3c2)C1` [Compound 847]: the pIC50 is 8.45.

For the molecule `Cc1nn(C)cc1-c1ccccc1-c1nc2cc(C(=O)N[C@H]3C[C@@](C)(C(=O)O)C3)ccn2c1C` [Compound 298], the pIC50 was 7.57.

Regarding `Cc1n[nH]cc1-c1ccccc1-c1nc2cc(C(=O)N[C@@H]3CO[C@H]4[C@@H]3OC[C@H]4O)ccn2c1Cl` [Compound 475], the pIC50 is 8.24.

With `Cn1cc(-c2cccc(F)c2-c2nc3cc(C(=O)N[C@H]4CC[C@H](CO)OC4)ccn3c2Cl)c(F)n1` [Compound 924, 3-chloro-2-(2-fluoro-6-(3-fluoro-1-methyl-1H-pyrazol-4-yl)phenyl)-N-((3S,6R)-6-(hydroxymethyl)tetrahydro-2H-pyran-3-yl)imidazo[1,2-a]pyridine-7-carboxamide], the pIC50 was 9.01.

On to `Cc1nn(C)cc1-c1ccccc1-c1nc2cc(C(=O)N3C[C@H](N)[C@@H](O)C3)ccn2c1Cl` [Compound 442], for which the negative-log IC50 (pIC50) is 7.82.

On to `C[C@]1(O)C[C@H](NC(=O)c2ccn3c(Cl)c(-c4ccccc4-c4cn(C(F)F)nc4Cl)nc3c2)C1` [Compound 819], for which the pIC50 is 8.21.

With `Cn1cc(-c2cccc(F)c2-c2nc3cc(C(=O)N[C@]45CC[C@](CO)(C4)OC5)ccn3c2Cl)cn1` [Compound 934], the pIC50 is 8.01.

With `Cc1nn(C)cc1-c1ccccc1-c1nc2cc(C(=O)N[C@H]3CO[C@H]4[C@@H]3OC[C@@H]4O)ccn2c1C#N` [Compound 774], the pIC50 is 8.28.

For `Cc1c(-c2ccccc2-c2cn(C)nc2C(F)(F)F)nc2cc(C(=O)N[C@H]3CO[C@H]4[C@@H]3OC[C@H]4O)ccn12` [Compound 784], the pIC50 is 8.21.

On to `Cc1nn(C)cc1-c1cccc(F)c1-c1nc2cc(C(=O)N3C[C@@H]4C[C@H]3C(=O)N4)ccn2c1Cl` [Compound 487], for which the pIC50 was 8.66.

Consider `Cc1nn(C)cc1-c1ccccc1-c1nc2cc(C(=O)N3CCN(C4CCNC4)CC3)ccn2c1Cl` (stereo not shown) [Compound 443], for which the pIC50 was 7.95.

Turning to `Cc1nn(C)cc1-c1ccncc1-c1nc2cc(C(=O)N[C@H]3C[C@](C)(O)C3)ccn2c1Cl` [Compound 825], the pIC50 was 8.11.

In the case of `Cc1nn(C)cc1-c1ccccc1-c1nc2cc(C(=O)O)ccn2c1Cl` [Compound 436], the pIC50 was 7.17.

Consider `CC1(O)CCN(C(=O)c2ccn3c(Cl)c(-c4c(F)cc(F)cc4-c4c[nH]nc4F)nc3c2)CC1` [Compound 829], for which the pIC50 was 8.08.

As for `Cn1cc(-c2cccc(F)c2-c2nc3cc(C(=O)N[C@@H]4CC[C@@H](CO)OC4)ccn3c2Cl)c(F)n1` [Compound 837], the pIC50 was 9.00.

On to `Cc1nn(C)cc1-c1ccccc1-c1nc2cc(C(=O)N3C[C@@H]4C[C@H]3C(=O)N4)ccn2c1Cl` [Compound 434], for which the pIC50 is 8.83.

With `Cn1cc(-c2cccc(F)c2-c2nc3cc(C(=O)N[C@H]4CC5(C4)C[C@](C)(O)C5)ccn3c2Cl)c(F)n1` (stereo partly drawn) [Compound 928, cis 3-chloro-2-(2-fluoro-6-(3-fluoro-1-methyl-1H-pyrazol-4-yl)phenyl)-N-(6-hydroxy-6-methylspiro[3.3]heptan-2-yl)imidazo[1,2-a]pyridine-7-carboxamide], the pIC50 is 8.81.

Turning to `Cn1cc(-c2cccc(F)c2-c2nc3cc(C(=O)NC[C@H]4C[C@@](C)(O)C4)ccn3c2Cl)c(F)n1` [Compound 844], the pIC50 was 9.38.

For `Cc1nn(C)cc1-c1ccccc1-c1nc2cc(C(=O)NC[C@H]3C[C@](C)(O)C3)ccn2c1Cl` [Compound 629], the pIC50 is 8.97.

As to `Cc1nn(C)cc1-c1ccccc1-c1nc2cc(C(=O)NC3CCNCC3)ccn2c1C` [Compound 264], the pIC50 was 7.97.

Take `O=C(NCC1(O)COC1)c1ccn2c(F)c(-c3c(F)cc(F)cc3-c3c[nH]nc3Cl)nc2c1` [Compound 834]: the negative-log IC50 (pIC50) was 8.22.

As to `Cc1nn(C)cc1-c1ccccc1-c1nc2cc(C(=O)N[C@H]3CO[C@H]4[C@@H]3OC[C@@H]4O)ccn2c1Cl` [Compound 767], the pIC50 was 8.37.

Turning to `Cn1cc(-c2cccc(F)c2-c2nc3cc(C(=O)N[C@H]4CC[C@@H](CO)OC4)ccn3c2C#N)c(F)n1` [Compound 926], the negative-log IC50 (pIC50) was 8.66.

As for `Cc1nn(C)cc1-c1cc(F)cc(F)c1-c1nc2cc(C(=O)N3CC4(O)CC3C4)ccn2c1Cl` [Compound 814], the pIC50 is 8.48.

As for `Cn1cc(-c2cccc(F)c2-c2nc3cc(C(=O)NC4CC5(COC5)C4)ccn3c2Cl)c(F)n1` [Compound 840], the pIC50 was 9.24.

Take `Cn1cc(-c2cccc(F)c2-c2nc3cc(C(=O)N[C@H]4CC[C@@](C)(O)CC4)ccn3c2Cl)c(F)n1` [Compound 919]: the pIC50 was 8.90.

On to `Cc1nn(C)cc1-c1ccccc1-c1nc2cc(C(=O)NCC34CC(CO)(CCO3)C4)ccn2c1Cl` [Compound 624], for which the pIC50 is 9.23.

Regarding `O=C(NC1CS(=O)(=O)C1)c1ccn2c(Cl)c(-c3c(F)cc(F)cc3-c3c[nH]nc3F)nc2c1` [Compound 830], the pIC50 is 8.18.

As for `Cc1nn(C)cc1-c1cccc(F)c1-c1nc2cc(C(=O)N3CCN(C(CO)CO)CC3)ccn2c1Cl` [Compound 796], the pIC50 was 8.39.

As for `Cn1cc(-c2cccc(F)c2-c2nc3cc(C(=O)N4CC5(C4)CC(C)(O)C5)ccn3c2Cl)c(F)n1` [Compound 842], the pIC50 is 8.86.

Turning to `Cn1cc(-c2cccc(F)c2-c2nc3cc(C(=O)NC45CCC(CO)(C4)OC5)ccn3c2Cl)c(F)n1` (stereo not shown) [Compound 854], the pIC50 is 8.85.

Consider `Cn1cc(-c2ccc(F)c(F)c2-c2nc3cc(C(=O)N[C@H]4C[C@@](C)(O)C4)ccn3c2Cl)c(F)n1` [Compound 916], for which the pIC50 is 9.08.

For the molecule `Cn1cc(-c2cccc(F)c2-c2nc3cc(C(=O)N[C@H]4C[C@](C)(O)C4)ccn3c2C#N)c(F)n1` [Compound 925, 3-cyano-2-(2-fluoro-6-(3-fluoro-1-methyl-1H-pyrazol-4-yl)phenyl)-N-((1r,3r)-3-hydroxy-3-methylcyclobutyl)imidazo[1,2-a]pyridine-7-carboxamide], the negative-log IC50 (pIC50) was 8.73.

Take `Cc1nn(C)cc1-c1ccccc1-c1nc2cc(C(=O)N[C@@H]3C[C@H]3CO)ccn2c1Cl` [Compound 619]: the negative-log IC50 (pIC50) was 8.91.

In the case of `Cc1c(-c2ccccc2-c2nc3cc(C(=O)N[C@@H]4CO[C@H]5[C@@H]4OC[C@H]5O)ccn3c2Cl)cnn1CC1CC1` [Compound 801], the pIC50 was 7.66.

With `Cn1cc(-c2cccc(F)c2-c2nc3cc(C(=O)NC45COC(CO)(C4)C5)ccn3c2Cl)c(F)n1` [Compound 838], the pIC50 is 8.29.

For the molecule `Cc1nn(C)cc1-c1ccccc1-c1nc2cc(C(=O)N[C@H]3C[C@](C)(C(=O)O)C3)ccn2c1C` [Compound 317], the pIC50 is 8.15.

With `Cc1nn(C)cc1-c1ccccc1-c1nc2cc(C(=O)NC[C@@H](C)N3CCNCC3)ccn2c1Cl` [Compound 797], the pIC50 is 8.33.

As for `Cn1cc(-c2cccc(F)c2-c2nc3cc(C(=O)NCC45CC(CO)(CCO4)C5)ccn3c2Cl)c(F)n1` [Compound 850], the pIC50 was 9.51.
